Data reported in the supplement of paper PMC10307832.

Key:
Experiment in all cases: relative viability (nuclei count vs DMSO), 5 days (fraction); higher = more cells survive
[1] = compound: COC1=CC=C(C=C1)CN2C=CC3=C2C=C(C=C3)C(=O)NO + CC(C)C[C@H](NC(=O)[C@H](Cc1ccccc1)NC(=O)c1cnccn1)B(O)O [Bortezomib] (partner 0.002 µM)
In short: (§1)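 Relative viability is defined as nuclei in treated wells over nuclei in vehicle wells. Duplicate plates were run and medians reported. Lung cancer cell lines in 1536-well plates were dosed by pin tool one day after seeding, with one drug or with a fixed anchor-drug dose plus five library-drug doses (not always all listed) in √10 steps, and nuclei were counted after 5 days.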

[2] = compound: COC1=CC=C(C=C1)CN2C=CC3=C2C=C(C=C3)C(=O)NO + C[C@]1(O)C[C@@H](c2nc(-c3ccc4ccc(-c5ccccc5)nc4c3)c3c(N)nccn32)C1 [Linsitinib] (partner 1 µM)
In short: as §1

Veliparib + Palbociclib = compound: C[C@]1(c2nc3c(C(N)=O)cccc3[nH]2)CCCN1 [Veliparib] + CC(=O)c1c(C)c2cnc(Nc3ccc(N4CCNCC4)cn3)nc2n(C2CCCC2)c1=O [Palbociclib] (partner 0.5 µM)
In short: as §1

Veliparib + Dasatinib = compound: C[C@]1(c2nc3c(C(N)=O)cccc3[nH]2)CCCN1 [Veliparib] + Cc1nc(Nc2ncc(C(=O)Nc3c(C)cccc3Cl)s2)cc(N2CCN(CCO)CC2)n1 [Dasatinib] (partner 0.075 µM)
In short: as §1

Cell Line	relative viability ([1]; first compound 0.253 µM)	relative viability ([1]; first compound 0.8 µM)	relative viability ([1]; first compound 2.53 µM)	relative viability ([1]; first compound 8 µM)	relative viability ([2]; first compound 0.253 µM)	relative viability ([2]; first compound 0.8 µM)	relative viability ([2]; first compound 2.53 µM)	relative viability ([2]; first compound 8 µM)	relative viability (Veliparib + Palbociclib; first compound 0.02 µM)	relative viability (Veliparib + Palbociclib; first compound 0.06325 µM)	relative viability (Veliparib + Palbociclib; first compound 0.2 µM)	relative viability (Veliparib + Palbociclib; first compound 0.6325 µM)	relative viability (Veliparib + Palbociclib; first compound 2 µM)	relative viability (Veliparib + Dasatinib; first compound 0.02 µM)	relative viability (Veliparib + Dasatinib; first compound 0.06325 µM)	relative viability (Veliparib + Dasatinib; first compound 0.2 µM)	relative viability (Veliparib + Dasatinib; first compound 0.6325 µM)	relative viability (Veliparib + Dasatinib; first compound 2 µM)	relative viability ([1]; first compound 0.08 µM)	relative viability ([2]; first compound 0.08 µM)
LU99A	1.13	1.14	1.06	0.938	0.581	0.533	0.552	0.569	0.495	0.399	0.418	0.381	0.451	0.592	0.51	0.612	0.517	0.431		
LXF-289	1	0.956	0.964	0.931	0.951	0.998	0.986	0.959	0.577	0.574	0.554	0.601	0.649	0.251	0.2	0.251	0.204	0.224	0.699	0.456
NCI-H23	1.02	1.14	0.975	0.594	0.619	0.564	0.599	0.544	0.546	0.428	0.445	0.486	0.516	0.622	0.71	0.753	0.75	0.87	1.04	0.406
NCI-H322M	0.971	1.27	1.23	1.26	0.934	0.931	0.946	0.926		0.491	0.48	0.514	0.49		0.231	0.246	0.27	0.253		
NCI-H441	0.406	0.543	0.497	0.413	0.676	0.573	0.579	0.42	0.203	0.222	0.266	0.213	0.218	0.502	0.572	0.591	0.558	0.691	0.331	0.304
NCI-H460	0.984	1.04	1.14	1.01	0.879	0.714	0.705	0.776	0.147	0.092	0.11	0.121	0.131	0.456	0.393	0.419	0.466	0.479	1.02	0.553
NCI-H520	0.722	0.64	0.751	0.525	1.04	1.01	0.977	0.946	0.24	0.239	0.254	0.212	0.223	0.194	0.233	0.176	0.168	0.188	0.218	0.313
